According to paper PMC9866191, “Novel 9-Benzylaminoacridine Derivatives as Dual Inhibitors of Phosphodiesterase 5 and Topoisomerase II for the Treatment of Colon Cancer” (Molecules, 2023):
Entries after “also recorded” stand apart in the source; their conditions may differ.

What was measured:
HCT-116 cells [1] = assay: Cell cycle analysis (PI, flow cytometry); format: cell-based, human; details: 10 µM, 24 h, PI staining
Procedure: To analyze cell cycle changes, cells permeated at 1 × 10^6 × cells/mL were trypsinized and diluted and then fixed in 70% ethanol at 4 °C. Cell cycle arrest in HCT-116 cells following compound exposure was accomplished using propidium iodide (Sigma-Aldrich, St. Louis, MI, USA). The markers were then assessed using a FACS-Caliburflow cytometer (Beckman Coulter, Taipei, Taiwan) and analyzed using WinMDI software. […]
(§1) Figure 3 Apoptosis induction and cell cycle effects of compounds in HCT-116 cells. (A) The apoptotic population of HCT-116 cells was analyzed using flow cytometry after treatment with 10 µM of the test compound for 24 h followed by Annexin V/propidium iodide (PI) staining. (B) After treatment with compound concentrations of 10 µM for 24 h, cells were fixed, stained with propidium iodide (PI), and analyzed for cell cycle distribution. Results are expressed as the means ± SD from three independent experiments (* p < 0.05 and ** p < 0.01 *** p < 0.001, control versus compound).

HCT-116 cells [2] = assay: Annexin-V/PI apoptosis assay; format: cell-based, human; details: 10 µM, 24 h
Procedure: For the same set of compounds, the apoptosis-inducing effects in HCT-116 cells were assessed using Annexin-V/PI double staining at 10 µM (Figure 3).
The number of apoptotic/necrotic cells was analyzed using flow cytometry following the manufacturer’s protocol. Markers were assessed using a FACS-Caliburflow cytometer (Beckman Coulter, Taipei, Taiwan) and analyzed using WinMDI 2.8 software.
as §1

RPMI-8226 = assay: NCI-60 one-dose screen; format: cell-based; details: Homo sapiens; RPMI-8226, Leukemia panel; single dose 10^−5 M; read-out: Growth inhibition %
UACC-257 = assay: NCI-60 one-dose screen; format: cell-based; details: Homo sapiens; UACC-257, Melanoma panel; single dose 10^−5 M; read-out: Growth inhibition %
human DNA Topo II = target: T1, human DNA Topo II (Homo sapiens, UniProt P11388); assay: Topo II-mediated relaxation of supercoiled pHOT1 plasmid DNA; format: biochemical; details: for DNA band pattern in Topo II relaxation assay: at 1 and 5 µM doses, similar to doxorubicin; for concentration at which Topo II inhibition (increase of supercoiled DNA) is shown: cell-free relaxation assay, gel
T1 construct: purchased Topogen, Columbus, OH, USA
T1 sequence (P11388 whole entry): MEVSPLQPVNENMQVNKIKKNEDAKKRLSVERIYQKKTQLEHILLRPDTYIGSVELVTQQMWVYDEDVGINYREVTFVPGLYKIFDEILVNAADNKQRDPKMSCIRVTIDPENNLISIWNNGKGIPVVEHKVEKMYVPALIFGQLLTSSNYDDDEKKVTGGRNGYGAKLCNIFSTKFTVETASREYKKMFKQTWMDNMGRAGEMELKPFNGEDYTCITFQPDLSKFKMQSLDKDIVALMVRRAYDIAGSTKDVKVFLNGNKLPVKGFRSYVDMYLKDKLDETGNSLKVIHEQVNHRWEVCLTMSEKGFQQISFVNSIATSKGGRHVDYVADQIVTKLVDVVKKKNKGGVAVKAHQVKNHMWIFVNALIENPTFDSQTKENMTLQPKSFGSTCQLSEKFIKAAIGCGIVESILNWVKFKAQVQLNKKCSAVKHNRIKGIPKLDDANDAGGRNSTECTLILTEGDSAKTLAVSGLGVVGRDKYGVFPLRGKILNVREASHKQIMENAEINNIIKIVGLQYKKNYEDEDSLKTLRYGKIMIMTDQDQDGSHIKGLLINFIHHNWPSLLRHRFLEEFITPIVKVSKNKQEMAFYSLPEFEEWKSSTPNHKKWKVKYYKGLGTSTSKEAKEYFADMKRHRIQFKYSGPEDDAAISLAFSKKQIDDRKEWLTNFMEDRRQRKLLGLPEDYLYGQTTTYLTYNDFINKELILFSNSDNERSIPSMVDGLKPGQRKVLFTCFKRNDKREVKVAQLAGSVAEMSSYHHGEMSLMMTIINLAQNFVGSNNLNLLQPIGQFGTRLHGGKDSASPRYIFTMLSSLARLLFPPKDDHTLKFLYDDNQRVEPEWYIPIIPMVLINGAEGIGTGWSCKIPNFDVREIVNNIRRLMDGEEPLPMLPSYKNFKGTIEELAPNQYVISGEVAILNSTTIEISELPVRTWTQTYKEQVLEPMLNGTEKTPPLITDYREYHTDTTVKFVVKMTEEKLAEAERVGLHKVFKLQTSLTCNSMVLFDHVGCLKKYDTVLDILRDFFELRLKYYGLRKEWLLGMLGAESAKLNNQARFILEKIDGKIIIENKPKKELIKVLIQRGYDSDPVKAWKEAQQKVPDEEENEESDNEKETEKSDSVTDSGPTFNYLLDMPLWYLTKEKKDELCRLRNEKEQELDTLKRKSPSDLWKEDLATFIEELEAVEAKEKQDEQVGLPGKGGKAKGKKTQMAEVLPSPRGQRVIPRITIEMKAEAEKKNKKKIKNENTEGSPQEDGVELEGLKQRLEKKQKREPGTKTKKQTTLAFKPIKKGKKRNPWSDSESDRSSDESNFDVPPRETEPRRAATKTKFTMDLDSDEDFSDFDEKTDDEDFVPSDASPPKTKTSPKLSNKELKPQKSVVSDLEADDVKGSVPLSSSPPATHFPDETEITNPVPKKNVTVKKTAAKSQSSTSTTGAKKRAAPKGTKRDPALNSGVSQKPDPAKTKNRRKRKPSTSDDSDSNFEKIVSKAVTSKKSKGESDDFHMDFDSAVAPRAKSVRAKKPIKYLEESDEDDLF
Procedure: Consequently, the effects of the synthesized compounds on Topo II activity were evaluated with a cell-free assay using a purified human DNA Topo II-protein-mediated relaxation of the negatively supercoiled pHOT1 plasmid DNA [40]. […] Two Topo II inhibitors (doxorubicin and etoposide) were used as positive controls.
The reaction was terminated by adding 2 μL of 10% SDS, followed by 2.5 μL of proteinase K (50 μg/mL) to digest the bound protein. The system was incubated at 37 °C for 15 min. The DNA product was finally analyzed using electrophoresis on a vertical 1.5% agarose gel at 2 volts/cm in 1 × TAE buffer and photographed using the Eagle Eye II system (Stratagene, La Jolla, CA, USA).
Figure 2 Effects of compounds on topoisomerase II activity. Effects on Topo II-mediated relaxation of supercoiled pHOT1 plasmid DNA in a cell-free system. Positive control: etoposide (10 µM); doxorubicin (5 µM) used as Topo II poison (induction of linear DNA); DNA relaxation: plasmid DNA + topo IIα + solvent control. Nick, nicked DNA; Sc, supercoiled DNA; Lin, linear DNA.

SMILES | effect on cell cycle (HCT-116 cells [1]) | induction of apoptosis (HCT-116 cells [2]) | inhibition at 10 µM (RPMI-8226) [%] | inhibition at 10 µM (UACC-257) [%] | DNA band pattern in Topo II relaxation assay (human DNA Topo II) | concentration at which Topo II inhibition (increase of supercoiled DNA) is shown (human DNA Topo II) [µM] | melting point [°C]
c1coc(CNc2c3ccccc3nc3ccccc23)c1 [Compound 14, Acridin-9-yl-furan-2-ylmethyl-amine] | arrested the cell cycle in the S phase | 20%–50% | 43.4 | 18.3 | larger base pair band than nicked DNA | – | –
Cc1ccc2nc3ccccc3c(NCc3ccccc3)c2c1 [Compound 30, Benzyl-(2-methylacridin-9-yl)-amine] | cell cycle arrest in the G2/M phase | less than 20% | 93.2 | 43.4 | larger base pair band than nicked DNA | – | –
Fc1ccc(CNc2c3ccccc3nc3ccccc23)c(F)c1 [Compound 21, Acridin-9-yl-(2,4-difluorobenzyl)-amine] | cell cycle arrest in the G2/M phase | less than 20% | 71.7 | 31.1 | larger base pair band than nicked DNA | – | –
Clc1cccc(CNc2c3ccccc3nc3ccccc23)c1 [Compound 12, Acridin-9-yl-(3-chlorobenzyl)-amine] | cell cycle arrest in the G2/M phase | – | 124 | 54.6 | – | 0.2 | –
Fc1ccc(CNc2c3ccccc3nc3ccccc23)cc1F [Compound 22, Acridin-9-yl-(3,4-difluorobenzyl)-amine] | cell cycle arrest in the G2/M phase | less than 20% | 73.1 | 34.9 | larger base pair band than nicked DNA | – | –
c1ccc(CNc2c3ccccc3nc3ccccc23)cc1 [Compound 1, Acridin-9-yl-benzyl-amine] | arrested the cell cycle in the S phase | – | 92.3 | 47.3 | – | – | –
Cc1cccc(CNc2c3ccccc3nc3ccccc23)c1 [Compound 3, Acridin-9-yl-(3-methylbenzyl)-amine] | cell cycle arrest in the G2/M phase | – | 120 | 63.8 | – | – | –
COc1ccc(CNc2c3ccccc3nc3ccccc23)cc1F [Compound 19, Acridin-9-yl-(3-fluoro-4-methoxybenzyl)-amine] | – | – | 106 | 62.2 | – | – | 145 to 147
COc1ccc2nc3ccccc3c(NCc3ccc(C)cc3)c2c1 [Compound 26, (2-Methoxyacridin-9-yl)-(4-methylbenzyl)-amine] | – | – | 146 | 108 | – | – | 131 to 133
COc1ccc(CNc2c3ccccc3nc3ccccc23)cc1 [Compound 7, Acridin-9-yl-(4-methoxybenzyl)-amine] | – | – | 84.2 | 47.7 | – | – | 116 to 118
COc1ccccc1CNc1c2ccccc2nc2ccccc12 [Compound 5, Acridin-9-yl-(2-methoxybenzyl)-amine] | does not affect the cell cycle | – | 91.9 | 35.9 | – | – | –
COc1ccc2nc3ccccc3c(NCc3ccccc3)c2c1 [Compound 25, Benzyl-(2-methoxyacridin-9-yl)-amine] | cell cycle arrest in the G2/M phase; also recorded: increased the number of cells in the S phase and G2/M phase | 20%–50% | 131 | 72.9 | larger base pair band than nicked DNA | – | –
Cc1ccc2nc3ccccc3c(NCc3ccc(Cl)cc3)c2c1 [Compound 31, (4-Chlorobenzyl)-(2-methyl-acridin-9-yl)-amine] | arrested the cell cycle in the S phase | 20%–50% | 128 | 103 | larger base pair band than nicked DNA | – | –
Fc1ccc(CNc2c3ccccc3nc3ccccc23)cc1 [Compound 10, Acridin-9-yl-(4-fluorobenzyl)-amine] | increased the number of cells in the S phase and G2/M phase | – | 100 | 64 | – | – | –
Clc1ccc(CNc2c3ccccc3nc3ccccc23)cc1 [Compound 13, Acridin-9-yl-(4-chlorobenzyl)-amine] | cell cycle arrest in the G2/M phase | – | 92 | 23.9 | – | – | 145 to 147
COc1ccc2nc3ccccc3c(NCc3ccc(Cl)cc3)c2c1 [Compound 29, (4-Chlorobenzyl)-(2-methoxyacridin-9-yl)-amine] | – | – | 145 | 152 | – | – | 178 to 180
c1ccc(CCNc2c3ccccc3nc3ccccc23)cc1 [Compound 23, Acridin-9-yl-phenethyl-amine] | – | – | 80.5 | 44.8 | – | – | 151 to 153
Clc1ccccc1CNc1c2ccccc2nc2ccccc12 [Compound 11, Acridin-9-yl-(2-chlorobenzyl)-amine] | cell cycle arrest in the G2/M phase | – | 127 | 55.7 | larger base pair band than nicked DNA | 0.04 | –
COc1cccc(CNc2c3ccccc3nc3ccccc23)c1 [Compound 6, Acridin-9-yl-(3-methoxybenzyl)-amine] | – | – | 83.3 | 45 | – | – | 107 to 109
Cc1ccccc1CNc1c2ccccc2nc2ccccc12 [Compound 2, Acridin-9-yl-(2-methylbenzyl)-amine] | cell cycle arrest in the G2/M phase | – | 109 | 67.3 | – | – | –
COc1cccc(CNc2c3ccccc3nc3ccccc23)c1OC [Compound 16, Acridin-9-yl-(2,3-dimethoxybenzyl)-amine] | – | – | 83 | 45.2 | – | – | 175 to 177
Fc1ccccc1CNc1c2ccccc2nc2ccccc12 [Compound 8, Acridin-9-yl-(2-fluorobenzyl)-amine] | cell cycle arrest in the G2/M phase | – | 87.7 | 41.2 | larger base pair band than nicked DNA | – | –
Fc1cccc(CNc2c3ccccc3nc3ccccc23)c1 [Compound 9, Acridin-9-yl-(3-fluorobenzyl)-amine] | cell cycle arrest in the G2/M phase | – | 89.9 | 41.9 | larger base pair band than nicked DNA | – | –
Cc1ccc(CNc2c3ccccc3nc3ccccc23)cc1 [Compound 4, Acridin-9-yl-(4-methylbenzyl)-amine] | increased the number of cells in the S phase and G2/M phase | – | 111 | 60.6 | – | – | –
Fc1cccc(CNc2c3ccccc3nc3ccccc23)c1F [Compound 20, Acridin-9-yl-(2,3-difluorobenzyl)-amine] | cell cycle arrest in the S phase and reduced the percentage of cells in the G2/M phase | 20%–50% | 47.1 | 7.14 | larger base pair band than nicked DNA | – | –
COc1ccc(CNc2c3ccccc3nc3ccc(OC)cc23)cc1 [Compound 27, (2-Methoxyacridin-9-yl)-(4-methoxybenzyl)-amine] | – | – | 148 | 93.4 | – | – | 168 to 170
COc1ccc(CNc2c3ccccc3nc3ccccc23)c(OC)c1 [Compound 17, Acridin-9-yl-(2,4-dimethoxybenzyl)-amine] | – | – | 65.1 | 25.4 | – | – | 170 to 172
